target: T1, recombinant human DGAT1 (hDGAT1) (Homo sapiens, UniProt O75907); test: Membrane-based recombinant hDGAT1 inhibitory activity using radiometry method (Method B); format: biochemical; conditions: values marked *: Method B (radiometry); Sf9 membranes expressing hDGAT1
T1 construct: host or cells: Sf9 insect cells (baculovirus expression system), used as membrane preparation
T1 sequence (O75907 1-488): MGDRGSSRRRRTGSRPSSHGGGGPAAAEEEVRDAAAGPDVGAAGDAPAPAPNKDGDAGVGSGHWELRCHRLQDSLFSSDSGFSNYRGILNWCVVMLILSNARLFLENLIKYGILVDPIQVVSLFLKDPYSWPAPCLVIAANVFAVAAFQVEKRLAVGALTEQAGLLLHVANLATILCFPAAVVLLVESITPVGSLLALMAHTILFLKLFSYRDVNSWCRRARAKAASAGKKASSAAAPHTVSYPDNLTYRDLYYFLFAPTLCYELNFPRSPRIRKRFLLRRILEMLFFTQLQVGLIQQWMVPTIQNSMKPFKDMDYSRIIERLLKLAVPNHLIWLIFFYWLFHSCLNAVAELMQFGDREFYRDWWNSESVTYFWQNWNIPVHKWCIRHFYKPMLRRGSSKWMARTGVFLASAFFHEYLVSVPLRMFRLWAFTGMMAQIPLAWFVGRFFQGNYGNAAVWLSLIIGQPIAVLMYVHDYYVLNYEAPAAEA
Protocol: Measurement of Membrane-Based Recombinant hDGAT1 Inhibitory Activity Using Radiometry Method (Method B):
The determination of recombinant human DGAT1 (hDGAT1) activity was carried out using a Radiometry based assay system based on literature report [European Journal of Medicinal Chemistry (2012), August; 54:324-42]. In brief, baculovirus expression system (Sf9) membranes expressing hDGAT1 were employed for the membrane based assay.
Radiometry hDGAT1 assays were performed using 1 μg of the hDGAT1, pre-incubated with 100 μl of the assay buffer [100 mM Tris-HCl (pH 7.5), 250 mM sucrose, and 1.25 mg/ml fatty acid free BSA] containing a known concentration of the inhibitor and supplemented with 300 μM of 1,2-dioleoylglycerol. The hDGAT1 reaction was initiated following an addition of 16.8 nCi of [14C]-oleoyl CoA. The reaction was terminated after 30 minutes of incubation at 37° C. using 300 μl alkaline ethanol stop solution mix (AESSM) [12.5% of 100% non-denatured ethanol, 10% deionized water, 2.5% NaOH, and 75% stop solution (78.4% isopropanol, 19.6% n-heptane, 2% deionized water)]. The ^14C triglyceride formed in this reaction was extracted using 600 μl of heptane. 250 μl of this extracted heptane was added to scintillation fluid and subjected to radioactivity measurement.

SMILES	IC50
O=C(O)CC1CC2(CCN(c3ccc(NC(=O)c4nnc(Nc5ccc(F)c(F)c5)o4)cn3)CC2)C1 [Example B32, 2-[7-[5-[[5-(3,4-difluoroanilino)-1,3,4-oxadiazole-2-carbonyl]amino]-2-pyridyl]-7-azaspiro[3.5]nonan-2-yl]acetic acid]	6.9 nM
O=C(O)CC1CC2(CCN(c3ccc(NC(=O)c4nnc(Nc5ccccc5F)o4)cn3)CC2)C1 [Example B33, 2-[7-[5-[[5-(2-fluoroanilino)-1,3,4-oxadiazole-2-carbonyl]amino]-2-pyridyl]-7-azaspiro[3.5]nonan-2-yl]acetic acid]	26 nM
O=C(Nc1ccc(N2CCC3(CC2)CC(C(=O)O)C3)nc1)c1nnc(Nc2ccccc2)o1 [Example B34, 7-[5-[(5-anilino-1,3,4-oxadiazole-2-carbonyl)amino]-2-pyridyl]-7-azaspiro[3.5]nonane-2-carboxylic acid]	24 nM
O=C(Nc1ccc(N2CCC3(CC2)CC(C(=O)O)C3)nc1)c1nnc(Nc2cccc(F)c2)o1 [Example B35, 7-[5-[[5-(3-fluoroanilino)-1,3,4-oxadiazole-2-carbonyl]amino]-2-pyridyl]-7-azaspiro[3.5]nonane-2-carboxylic acid]	19 nM
O=C(Nc1ccc(N2CCC3(CC2)CC(C(=O)O)C3)nc1)c1nnc(Nc2ccc(Cl)cc2)o1 [Example B36, 7-[5-[[5-(4-chloroanilino)-1,3,4-oxadiazole-2-carbonyl]amino]-2-pyridyl]-7-azaspiro[3.5]nonane-2-carboxylic acid]	25 nM

Second part, the compound after the results:

IC50	SMILES
22 nM	O=C(Nc1ccc(N2CCC3(CC2)CC(C(=O)O)C3)nc1)c1nnc(Nc2cccc(C(F)(F)F)c2)o1 [Example B37, 7-[5-[[5-[3-(trifluoromethyl)anilino]-1,3,4-oxadiazole-2-carbonyl]amino]-2-pyridyl]-7-azaspiro[3.5]nonane-2-carboxylic acid]
50 nM	O=C(O)CC1CC2(CCN(c3ccc(NC(=O)c4nnc(Nc5ccccc5F)o4)cc3)CC2)C1 [Example B38, 2-[7-[4-[[5-(2-fluoroanilino)-1,3,4-oxadiazole-2-carbonyl]amino]phenyl]-7-azaspiro[3.5]nonan-2-yl]acetic acid]
47 nM	O=C(O)CC1CC2(CCN(c3ccc(NC(=O)c4nnc(Nc5ccccc5)o4)cc3)CC2)C1 [Example B39, 2-[7-[4-[(5-anilino-1,3,4-oxadiazole-2-carbonyl)amino]phenyl]-7-azaspiro[3.5]nonan-2-yl]acetic acid]
20 nM	O=C(O)CC1CC2(CCN(c3ccc(NC(=O)c4nnc(Nc5ccc(F)c(F)c5)o4)cc3)CC2)C1 [Example B40, 2-[7-[4-[[5-(3,4-difluoroanilino)-1,3,4-oxadiazole-2-carbonyl]amino]phenyl]-7-azaspiro[3.5]nonan-2-yl]acetic acid]
